Data from BindingDB's records for patent US10308652 (Bristol-Myers Squibb, 2019).

Molecular target: Tumor necrosis factor (Homo sapiens, UniProt P01375)
Assay: TNF induced HEK-Blue assay
Protocol: Test compounds serially diluted in DMSO were plated in an assay plate (Labcyte, Cat. #LP-0200) at final concentrations ranging from 0.004 μM to 25μM. TNFα (final concentration 0.5 ng/ml) or CD4OL (final concentration 30 ng/ml) in assay buffer [DMEM, 4.5 g/l glucose (Gibco, Cat. 21063-029), 10% FBS (Sigma, F4135), 1% Penicillin-Streptomycin (Gibco, Cat. 15140-122), 1% Anti-Anti (Gibco, Cat. 15240-112) and 2 mM L-glutamine (Gibco, Cat. 25030-081)] was then added to the assay plate. After a 30 minute pre-incubation at 37° C. and 5% CO2, HEK-Blue-CD40L cells (InvivoGen, Cat. Code hkb-cd40) containing a NF-κB-driven secreted alkaline phosphatase reporter gene were seeded into the assay plate at a density of 20,000 cells per well. This plate was then incubated for 18 h at 37° C. and 5% CO2. Secreted alkaline phosphatase expression was measured using QUANTI-Blue (InvivoGen, Cat. Code rep-qb1) according to manufacturer's specifications and the assay plate was read on a PerkinElmer Envision at 620 nm.

Tumor necrosis factor, sequence (P01375 whole entry): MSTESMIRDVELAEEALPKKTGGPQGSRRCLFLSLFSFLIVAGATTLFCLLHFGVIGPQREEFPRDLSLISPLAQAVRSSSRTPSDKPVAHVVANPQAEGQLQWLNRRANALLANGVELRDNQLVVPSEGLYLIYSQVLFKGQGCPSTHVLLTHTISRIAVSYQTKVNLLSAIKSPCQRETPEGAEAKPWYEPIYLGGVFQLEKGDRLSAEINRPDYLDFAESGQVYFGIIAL

## CC(C)(O)c1ccc(-c2ccc3nc4c(n3n2)[C@@H](c2ccccc2OC(F)F)NC[C@H]4O)cc1 [US10308652, Example 6]
  IC50: < 1 µM
